In PubChem BioAssay (NCI):
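Method: 48-hour compound exposure of cells in 96-well plates, five concentrations, linear interpolation of endpoints. Here, GI50 denotes the concentration required for 50% inhibition of growth. TGI: total growth inhibition.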

Legend:
Assay in all cases: growth of human tumour cells (NCI), 48 h
786-0 renal = tested on: 786-0 renal
A498 renal = tested on: A498 renal
A549 NSCLC = tested on: A549 NSCLC
ACHN renal = tested on: ACHN renal
BT-549 breast = tested on: BT-549 breast
CAKI-1 renal = tested on: CAKI-1 renal
CCRF-CEM leukemia = tested on: CCRF-CEM leukemia
COLO 205 colon = tested on: COLO 205 colon
DU-145 prostate = tested on: DU-145 prostate
EKVX NSCLC = tested on: EKVX NSCLC
HCC-2998 colon = tested on: HCC-2998 colon
HCT-116 colon = tested on: HCT-116 colon
HCT-15 colon = tested on: HCT-15 colon
HOP-62 NSCLC = tested on: HOP-62 NSCLC
HOP-92 NSCLC = tested on: HOP-92 NSCLC
HS 578T breast = tested on: HS 578T breast
HT29 colon = tested on: HT29 colon
IGROV1 ovarian = tested on: IGROV1 ovarian
K-562 leukemia = tested on: K-562 leukemia
KM12 colon = tested on: KM12 colon
LOX IMVI melanoma = tested on: LOX IMVI melanoma
M14 melanoma = tested on: M14 melanoma
MALME-3M melanoma = tested on: MALME-3M melanoma
MCF7 breast = tested on: MCF7 breast
MDA-MB-231 breast = tested on: MDA-MB-231 breast
MDA-MB-435 = tested on: MDA-MB-435
MOLT-4 leukemia = tested on: MOLT-4 leukemia
NCI-H226 lung = tested on: NCI-H226 lung
NCI-H23 lung = tested on: NCI-H23 lung
NCI-H460 lung = tested on: NCI-H460 lung
NCI-H522 lung = tested on: NCI-H522 lung
NCI/ADR-RES ovarian = tested on: NCI/ADR-RES ovarian
OVCAR-3 ovarian = tested on: OVCAR-3 ovarian
OVCAR-4 ovarian = tested on: OVCAR-4 ovarian
OVCAR-5 ovarian = tested on: OVCAR-5 ovarian
OVCAR-8 ovarian = tested on: OVCAR-8 ovarian
PC-3 prostate = tested on: PC-3 prostate
RPMI-8226 leukemia = tested on: RPMI-8226 leukemia
RXF 393 renal = tested on: RXF 393 renal
SF-268 CNS = tested on: SF-268 CNS
SF-295 CNS = tested on: SF-295 CNS
SF-539 CNS = tested on: SF-539 CNS
SK-MEL-2 melanoma = tested on: SK-MEL-2 melanoma
SK-MEL-28 melanoma = tested on: SK-MEL-28 melanoma
SK-MEL-5 melanoma = tested on: SK-MEL-5 melanoma
SK-OV-3 ovarian = tested on: SK-OV-3 ovarian
SN12C renal = tested on: SN12C renal
SNB-19 CNS = tested on: SNB-19 CNS
SNB-75 CNS = tested on: SNB-75 CNS
SW-620 colon = tested on: SW-620 colon
T-47D breast = tested on: T-47D breast
TK-10 renal = tested on: TK-10 renal
U251 CNS = tested on: U251 CNS
UACC-257 melanoma = tested on: UACC-257 melanoma
UACC-62 melanoma = tested on: UACC-62 melanoma
UO-31 renal = tested on: UO-31 renal

CC(=O)NNC(=O)c1nn(-c2ccc(Cl)cc2)cc1OC(C)=O
GI50 (786-0 renal): 14.4 µM | TGI (786-0 renal): > 100 µM | GI50 (A498 renal): 22.2 µM | TGI (A498 renal): 91.7 µM | GI50 (A549 NSCLC): 18.8 µM | TGI (A549 NSCLC): > 100 µM | GI50 (ACHN renal): 15.3 µM | TGI (ACHN renal): > 66.6 µM | GI50 (BT-549 breast): 28.8 µM | TGI (BT-549 breast): > 100 µM | GI50 (CAKI-1 renal): 9.3 µM | TGI (CAKI-1 renal): 82.6 µM | GI50 (CCRF-CEM leukemia): 10.2 µM | TGI (CCRF-CEM leukemia): > 100 µM | GI50 (COLO 205 colon): 39.1 µM | TGI (COLO 205 colon): > 100 µM | GI50 (DU-145 prostate): 18.7 µM | TGI (DU-145 prostate): > 100 µM | GI50 (EKVX NSCLC): 23.7 µM | TGI (EKVX NSCLC): > 100 µM | GI50 (HCC-2998 colon): 21.4 µM | TGI (HCC-2998 colon): > 100 µM | GI50 (HCT-116 colon): 14.6 µM | TGI (HCT-116 colon): > 100 µM | GI50 (HCT-15 colon): 7.23 µM | TGI (HCT-15 colon): > 100 µM | GI50 (HOP-62 NSCLC): 27.2 µM | TGI (HOP-62 NSCLC): > 100 µM | GI50 (HOP-92 NSCLC): 38.7 µM | TGI (HOP-92 NSCLC): > 100 µM | GI50 (HS 578T breast): 40 µM | TGI (HS 578T breast): > 100 µM | GI50 (HT29 colon): 42.4 µM | TGI (HT29 colon): > 93.4 µM | GI50 (IGROV1 ovarian): 21.5 µM | TGI (IGROV1 ovarian): > 100 µM | GI50 (K-562 leukemia): 32.9 µM | TGI (K-562 leukemia): > 100 µM | GI50 (KM12 colon): 43.7 µM | TGI (KM12 colon): > 100 µM | GI50 (LOX IMVI melanoma): 22.5 µM | TGI (LOX IMVI melanoma): > 100 µM | GI50 (M14 melanoma): 14.2 µM | TGI (M14 melanoma): 49.7 µM | GI50 (MALME-3M melanoma): 25.7 µM | TGI (MALME-3M melanoma): > 91.4 µM | GI50 (MCF7 breast): > 37 µM | TGI (MCF7 breast): > 78.4 µM | GI50 (MDA-MB-231 breast): 23.7 µM | TGI (MDA-MB-231 breast): > 87.4 µM | GI50 (MDA-MB-435): 30.3 µM | TGI (MDA-MB-435): > 100 µM | GI50 (MOLT-4 leukemia): > 21 µM | TGI (MOLT-4 leukemia): > 100 µM | GI50 (NCI-H226 lung): 22.1 µM | TGI (NCI-H226 lung): > 100 µM | GI50 (NCI-H23 lung): 22.2 µM | TGI (NCI-H23 lung): 97.2 µM | GI50 (NCI-H460 lung): 5.76 µM | TGI (NCI-H460 lung): > 100 µM | GI50 (NCI-H522 lung): 35.5 µM | TGI (NCI-H522 lung): > 100 µM | GI50 (NCI/ADR-RES ovarian): 17 µM | TGI (NCI/ADR-RES ovarian): 69.7 µM | GI50 (OVCAR-3 ovarian): 18.8 µM | TGI (OVCAR-3 ovarian): > 100 µM | GI50 (OVCAR-4 ovarian): 79.6 µM | TGI (OVCAR-4 ovarian): > 100 µM | GI50 (OVCAR-5 ovarian): > 83.5 µM | TGI (OVCAR-5 ovarian): > 100 µM | GI50 (OVCAR-8 ovarian): 22.3 µM | TGI (OVCAR-8 ovarian): > 100 µM | GI50 (PC-3 prostate): 5.07 µM | TGI (PC-3 prostate): > 25 µM | GI50 (RPMI-8226 leukemia): 12.1 µM | TGI (RPMI-8226 leukemia): 64.3 µM | GI50 (RXF 393 renal): 16.9 µM | TGI (RXF 393 renal): > 83.2 µM | GI50 (SF-268 CNS): 8.85 µM | TGI (SF-268 CNS): > 71.3 µM | GI50 (SF-295 CNS): 15.9 µM | TGI (SF-295 CNS): > 100 µM | GI50 (SF-539 CNS): 21.9 µM | TGI (SF-539 CNS): > 100 µM | GI50 (SK-MEL-2 melanoma): > 64.7 µM | TGI (SK-MEL-2 melanoma): > 100 µM | GI50 (SK-MEL-28 melanoma): > 56.7 µM | TGI (SK-MEL-28 melanoma): > 100 µM | GI50 (SK-MEL-5 melanoma): 10.4 µM | TGI (SK-MEL-5 melanoma): > 69.1 µM | GI50 (SK-OV-3 ovarian): 49.5 µM | TGI (SK-OV-3 ovarian): > 100 µM | GI50 (SN12C renal): 20.8 µM | TGI (SN12C renal): > 100 µM | GI50 (SNB-19 CNS): > 70.2 µM | TGI (SNB-19 CNS): > 100 µM | GI50 (SNB-75 CNS): > 66.5 µM | TGI (SNB-75 CNS): 99.7 µM | GI50 (SW-620 colon): 23.6 µM | TGI (SW-620 colon): > 100 µM | GI50 (T-47D breast): 13.7 µM | TGI (T-47D breast): 94.6 µM | GI50 (TK-10 renal): 15.6 µM | TGI (TK-10 renal): > 100 µM | GI50 (U251 CNS): 11.8 µM | TGI (U251 CNS): > 100 µM | GI50 (UACC-257 melanoma): 87.8 µM | TGI (UACC-257 melanoma): > 100 µM | GI50 (UACC-62 melanoma): 19.8 µM | TGI (UACC-62 melanoma): > 65.3 µM | GI50 (UO-31 renal): 17.5 µM | TGI (UO-31 renal): > 86.8 µM
